# Assays:
# [1] = Octanol-water partition coefficient, log P of the compound at 37 degC; assay type: physicochemical
# [2] = biological target: Histamine H2 receptor (Cavia porcellus) (UniProt P47747); assay: Antagonist at histamine H2 receptor in guinea pig atrium assessed as inhibition of histamine-induced response; conditions: Cardiac atrium
# [3] = biological target: Histamine H2 receptor (Rattus norvegicus) (UniProt P25102); assay: Antagonist at histamine H2 receptor in rat uterus assessed as inhibition of histamine-induced response; assay type: tissue-based
# [4] = Octanol-water partition coefficient, log P of the compound at pH 9.2; assay type: physicochemical
# [5] = Ionization constant, pKa of the imidazole ring of the compound; assay type: physicochemical
# [6] = Solubility of the compound in water at 37 degC; assay type: physicochemical; conditions: buffer
# [7] = Ionization constant, pKa of the compound; assay type: physicochemical
# [8] = Octanol-water partition coefficient, P of the compound at 37 degC
# Histamine H2 receptor (Cavia porcellus), sequence (P47747 whole entry): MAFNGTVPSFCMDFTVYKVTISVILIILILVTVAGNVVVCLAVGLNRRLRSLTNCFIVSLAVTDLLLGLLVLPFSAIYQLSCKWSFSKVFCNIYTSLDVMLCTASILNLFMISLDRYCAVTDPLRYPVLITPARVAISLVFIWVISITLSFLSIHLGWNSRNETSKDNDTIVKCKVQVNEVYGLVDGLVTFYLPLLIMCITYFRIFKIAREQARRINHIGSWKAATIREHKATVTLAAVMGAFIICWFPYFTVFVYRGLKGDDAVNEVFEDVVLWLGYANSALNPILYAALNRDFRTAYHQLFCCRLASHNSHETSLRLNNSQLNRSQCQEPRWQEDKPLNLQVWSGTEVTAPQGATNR
# Histamine H2 receptor (Rattus norvegicus), sequence (P25102 whole entry): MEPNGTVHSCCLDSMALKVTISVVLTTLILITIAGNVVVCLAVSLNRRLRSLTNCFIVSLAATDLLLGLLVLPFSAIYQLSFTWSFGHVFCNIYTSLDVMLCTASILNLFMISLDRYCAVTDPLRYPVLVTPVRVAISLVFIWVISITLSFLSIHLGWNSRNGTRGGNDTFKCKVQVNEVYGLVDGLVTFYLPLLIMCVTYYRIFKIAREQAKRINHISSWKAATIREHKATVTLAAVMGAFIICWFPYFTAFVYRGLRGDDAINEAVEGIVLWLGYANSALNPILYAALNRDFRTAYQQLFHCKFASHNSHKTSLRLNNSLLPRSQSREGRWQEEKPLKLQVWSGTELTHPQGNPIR
Compound,Kb [2],Kb [3],also measured
CNC(=NC#N)NC,–,–,logP [1]: -0.398
CNC(=O)NCCSCc1[nH]cnc1C,22 µM,7.1 µM,–
CNC(=S)NC,–,–,logP [1]: -0.237
CN/C(=N\C(N)=O)NCCSCc1nc[nH]c1C,7.1 µM,6.9 µM,–
CN/C(=N\CCSCc1nc[nH]c1C)NC#N,–,0.81 µM,–
C/N=C(\S)NCCSCc1[nH]cnc1C [METIAMIDE],–,–,logP ([4]; read-out: logP (converted)): 0.505; pKa [5]: 6.8; solubility [6]: 0.32%
C/N=C(\S)NCCCCc1c[nH]cn1,7.8 µM,6.6 µM,–
CN/C(=N\C#N)NCCSCc1c[nH]cn1,1.4 µM,1.6 µM,–
CNC(=N)NCCSCc1nc[nH]c1C,16 µM,5.5 µM,–
CN/C(=N\C#N)NCCCCc1c[nH]cn1,8.3 µM,7.1 µM,–
N#CNC(=N)N,–,–,pKa [7]: -0.4; logP [1]: -1.16
C/N=C(/NCCSCc1[nH]cnc1C)N[N+](=O)[O-],1.4 µM,1.4 µM,–
CNC(=S)NCCSCc1c[nH]cn1,3.2 µM,3.2 µM,–
CN/C(=N/C#N)NCCCCc1nc[nH]c1C,8.1 µM,4.9 µM,–
NC(N)=S [THIOUREA],–,–,pKa [7]: -1.2; P [8]: 0.09
CN/C(=N/CCSCc1nc[nH]c1C)NC#N [CIMETIDINE],–,–,logP [4]: 2.5; solubility [6]: 1.14%
N=C(N)N [GUANIDINE],–,–,pKa [7]: 13.6
CNC(=S)NCCSCc1[nH]cnc1C,0.92 µM,0.75 µM,–
CNC(=S)NCCCCc1nc[nH]c1C,8.9 µM,10.7 µM,–
